Reference: patent US11912645B2, “Lipopeptide compounds for the treatment of pain disorders” (INSERM (Institut National de la Santé et de la Recherche …, priority 2017, dated 2024)

Tests used:
[1] = tested on: mouse dorsal root ganglia (DRG) neurons; experiment: Calcium mobilization in primary DRG sensory neurons, basal (unstimulated); format: cell-based; conditions: 10 μM
Description: Male C57B16 mice (6-8 weeks) were used to produce primary cultures of dorsal root ganglia (DRG) sensory neurons for calcium flux experiments, and to perform studies of colorectal distention and intestinal isotonic contraction. All procedures were approved by Institutional Animal Care Committees (CEEA 122).
To determine whether C12-Asn-GABA or C12-Asn-BABA is capable of signaling to sensory nerves, calcium mobilization studies were performed on primary cultures of mouse dorsal root ganglia (DRG) neurons. […] The same experiments were thereafter performed in neurons activated by either an agonist of the receptor calcium channel TRPV1 (capsaicin) or by a mix of agonists (histamine, serotonin and bradykinin) for G protein coupled receptors (GPCR) implicated in visceral hypersensitivity. Exposure of neurons to either capsaicin (125 nM) or the mix of GPCR agonists (histamine, bradykinin, serotonin, 10 μM each) induced an increase in calcium flux as shown by the higher % of responding neurons and amplitude of the response (ΔF/F) compared to the vehicle (FIG. 4A, 4B). […] To investigate whether the inhibitory effect of C12-Asn-GABA was associated to the GABA residue, neurons were treated with saclofen (10, 50, and 100 μM), a competitive antagonist of the GABAB receptor. […]

[2] = Colon and blood levels after intracolonic administration (LC-MS/MS); format: in vivo, mouse; conditions: intracolonic 10 μM; 30 minutes or 4 hours; vs vehicle
Description: (§1) FIG. 6: C12-Asn-GABA inhibits capsaicin-induced visceral hypersensitivity without altering Intestinal contraction. Mice received intracolonic administration of C12-Asn-GABA (10 μM; black symbols) or vehicle (40% ethanol; white symbols) and 30 minutes or 4 hours later colon (A) and blood (B) were harvested in order to quantify C12-Asn-GABA by LC-MS/MS. Data are expressed as mean±SEM, n=8 mice per group. […] Mice received intracolonic administration of C12-Asn-GABA (10 μM; black symbols) or vehicle (40% ethanol; white symbols) and 30 minutes or 4 hours later an intracolonic administration of capsaicin (100 μg/mouse; square) or its vehicle (40% ethanol; circle). Fifteen minutes after capsaicin or vehicle treatment, visceromotor response (VMR) to increasing pressures of colorectal distension was performed. Data are expressed as mean±SEM, n=7-8 mice per group. […] Ex vivo measurement of duodenal mechanical contraction frequency (B) and amplitude (C) in response to Krebs-Ringer solution (control; white bar), to DMSO 0.2% (vehicle; gray bar) or to C12-Asn-GABA (10 μM; black bar). Data are expressed as mean±SEM, n=5-6 per group. […]
(§2) In a first set of experiment, we assessed the ability of the C12-Asn-GABA to cross the epithelial barrier, in vivo. […] The impact of C12-Asn-GABA on visceral hypersensitivity was assessed by measuring the visceromotor responses (VMR) to colorectal distension (CRD). […]

[3] = tested on: capsaicin-induced visceral hypersensitivity; experiment: Capsaicin-induced visceral hypersensitivity, visceromotor response to colorectal distension; format: in vivo, mouse
Description: FIG. 6: C12-Asn-GABA inhibits capsaicin-induced visceral hypersensitivity without altering Intestinal contraction. Mice received intracolonic administration of C12-Asn-GABA (10 μM; black symbols) or vehicle (40% ethanol; white symbols) and 30 minutes or 4 hours later colon (A) and blood (B) were harvested in order to quantify C12-Asn-GABA by LC-MS/MS. Data are expressed as mean±SEM, n=8 mice per group. […] Mice received intracolonic administration of C12-Asn-GABA (10 μM; black symbols) or vehicle (40% ethanol; white symbols) and 30 minutes or 4 hours later an intracolonic administration of capsaicin (100 μg/mouse; square) or its vehicle (40% ethanol; circle). Fifteen minutes after capsaicin or vehicle treatment, visceromotor response (VMR) to increasing pressures of colorectal distension was performed. Data are expressed as mean±SEM, n=7-8 mice per group. […] Ex vivo measurement of duodenal mechanical contraction frequency (B) and amplitude (C) in response to Krebs-Ringer solution (control; white bar), to DMSO 0.2% (vehicle; gray bar) or to C12-Asn-GABA (10 μM; black bar). Data are expressed as mean±SEM, n=5-6 per group. Statistical analysis was performed using Kruskal-Wallis analysis of variance and subsequent Dunn's post hoc test.
FIG. 8: Trimebutine maleate has no effect on capsaicin-induced visceral hypersensitivity. Mice received an oral treatment with vehicle (PEG200, white circle) or with trimebutine maleate (25 mg/kg, black circle) and 4 hours later an intracolonic administration of capsaicin (100 μg/mouse; black and white circle). Fifteen minutes after capsaicin, visceromotor response (VMR) to increasing pressures of colorectal distension was performed. Data are expressed as mean±SEM, n=7-8 mice per group. […]
as §2

duodenal preparations = experiment: Ex vivo duodenal mechanical contraction (isotonic sensors); set-up: species or system mouse; conditions: 10 μM, vs control and vehicle
Description: as §1
IBS patients are characterized by diverse alterations of gut transit: diarrhea, constipation or mixed^1, thus a drug impairing bowel motility could limit its putative use in this pathology. We evaluated whether C12-Asn-GABA was capable of impairing duodenal motility. […]

[4] = tested on: DSS-induced visceral hypersensitivity; experiment: DSS-induced colitis visceral hypersensitivity, visceromotor response to colorectal distension; format: in vivo, mouse; conditions: DSS 3% 5 days; 100 μL intracolonic 10 μM at day 5; CRD 15-60 mm Hg
Description: FIG. 9: C12-Asn-GABA Inhibits DSS-induced visceral hypersensitivity. Mice received DSS 3% in their drinking water for 5 days to induce colitis. At day 5, mice were intracolonically administrated with C12-Asn-GABA (10 μM; black circles) or vehicle (40% ethanol; white circles). Thirty minutes after intracolonic administration, visceromotor response (VMR) to increasing pressures of colorectal distension was performed. Data are expressed as mean±SEM, n=5 mice per group.
The analgesic properties of the C12-Asn-GABA was assessed in a mouse colitis model. Dextran sulfate sodium (DSS) at 3% during 5 days was added in the drinking water in order to induce colitis.

concentration in the blood [2]: increased the concentration
concentration in the colonic tissue [2]: increased the concentration
Structure (SMILES): CCCCCCCCCCCC(=O)NC(CC(N)=O)C(=O)NCCCC(=O)O (centres unmarked) [C12-Asn-GABA, C11 C(O)-Asn-gamma-aminobutyric acid]
calcium mobilization under basal (unstimulated) conditions [1]: does not induce calcium mobilization
capsaicin-evoked increase in VMR to CRD ([3]; 100 μL intracolonic 10 μM pretreatment, capsaicin 100 μg/animal, CRD 15-60 mm Hg): significantly prevented for all distension pressures
visceral sensitivity in response to CRD in the absence of capsaicin ([3]; intracolonic 10 μM, no capsaicin): did not modify visceral sensitivity
amplitude of intestinal contractions (duodenal preparations): nor the amplitude of intestinal contractions
frequency of duodenal contractions (duodenal preparations): impairs neither the frequency of contractions
DSS-induced increase in VMR to CRD [4]: significantly decreased for all distension pressures
